Values quoted from earlier work in patent publication US20240182421A1, “SYNTHESIS OF ENDOCHIN-LIKE QUINOLONES” (Oregon Health & Science University, priority 2021, published 2024).
“Also recorded” adds a separate entry of the source.

Experiments:
avian malaria = conditions: in vivo
[1] = system: apicomplexan parasites of importance to veterinary medicine
malaria = conditions: compared with ELQ-300

SMILES | activity in the avian malaria model (avian malaria) | activity against a range of apicomplexan parasites of importance to veterinary medicine [1] | antimalarial activity in vivo (malaria) | antiparasitic activity / potency against Toxoplasma gondii (Toxoplasma gondii) | antiparasitic activity / potency against Babesia microti (Babesia microti)
CCCCCCCc1c(C)[nH]c2cc(OC)ccc2c1=O [endochin] | high activity |  |  |  | 
COc1cc2[nH]c(C)c(-c3ccc(Oc4ccc(OC(F)(F)F)cc4)cc3)c(=O)c2cc1Cl [ELQ-300, 6-Chloro-7-methoxy-2-methyl-3-(4-(4-(trifluoromethoxy)phenoxy)phenyl)quinolin-4(1H)-one] |  | active |  |  | 
COc1cc2[nH]c(C)c(-c3ccc(Oc4ccc(OC(F)(F)F)cc4)cc3)c(=O)c2cc1F [ELQ-316, 6-Fluoro-7-methoxy-2-methyl-3-(4-(4-(trifluoromethoxy)phenoxy)phenyl)quinolin-4(1H)-one] |  | active | slightly less antimalarial activity than ELQ-300 | greatest potency; also recorded: superior antiparasitic activity | greatest potency; also recorded: superior antiparasitic activity
